“Also recorded” adds a separate entry of the source.
Experiments:
KERed from Y. cellobiosa = experiment: Screening of crude extract for ketoester reductase activity (photometric NAD(P)H decrease); type: biochemical, Yarrowinia cellobiosa; settings: 8 mM ketoester, TEA-NaOH buffer pH 7, mU/mg protein; for NADH dependent specific activity: 0.2 mM NADH; for NADPH-dependent specific activity: 0.2 mM NADPH
Description: (§1) For screening collection strains of the DSM (German Collection of Microorganisms and Cell Cultures, Braunschweig) is cultured in the DSM recommended medium, the cell mass is harvested by centrifugation and disintegrated by wet milling. A permanent deposit of Candida parapsilosis DSM 70125 has been deposited on 29 Mar. 1979 in accordance with the requirements of the Budapest Treaty. The address of the depository is as follows: German Collection of Microorganisms and Cell Cultures, DSM-Mascheroder Weg 1B, Braunschweig, Germany. The supernatant served as the enzyme source (crude extract) and was investigated for ketoester reductase activity. The test was carried out photometrically and the test mixture contained the following components.
(§2) 0.1M triethanoleamine (TEA)-NaOH-Buffer, pH 7
(§3) Limited amounts of the crude extract.
(§4) The NAD(P)H-decrease at 334nm over a period of 1 minute was followed: For activity calculation, an absorption coefficient of […] was used. […] One U (unit) corresponds to the consumption and conversion of 1 μmole of reduced coenzyme per minute.

[1] = tested on: KERed from Candida parapsilosis; experiment: Kinetic characterization of the KERed; type: biochemical; settings: partially purified enzyme; for Vmax: referred to 2-butanone
[2] = tested on: KERed from P. acidovorans; experiment: Screening of crude extract for ketoester reductase activity (photometric NAD(P)H decrease); type: biochemical, Pseudomonas acidovorans; settings: 8 mM ketoester, TEA-NaOH buffer pH 7, mU/mg protein; for NADH dependent specific activity: 0.2 mM NADH
Description: as §1, §2, §3, §4

[3] = tested on: KERed from R. erythropolis; experiment: as above; type: biochemical, Rhodococcus erythropolis; settings: 0.2 mM NADH, 8 mM ketoester, TEA-NaOH buffer pH 7, mU/mg protein
Description: as §1, §2, §3, §4

[4] = tested on: KERed from C. parapsilosis; experiment: as above; type: biochemical, Candida parapsilosis; settings: 8 mM ketoester, TEA-NaOH buffer pH 7, mU/mg protein; for NADH dependent specific activity: 0.2 mM NADH; for NADPH-dependent specific activity: 0.2 mM NADPH
Description: as §1, §2, §3, §4

[5] = tested on: KERed from C. parapsilosis; experiment: Inhibition study of the KERed (influence of metal cations and reagents); type: biochemical, Candida parapsilosis; settings: for Influence on KERed activity (in words): summary statements of the inhibition study
Text: For the following investigation, partially purified enzyme (after Q-sepharose chromatography, 67-times enrichment) was used. […]
5-oxohexanoic acid ethyl ester
TEA-NaOH-buffer, 0.1 M; pH 7.9
The influence of various metal cations and reagents upon the enzymatic activity was investigated in tests in which the test preparation described under example 3.B was used.

[6] = compound 0.1 mM, 35 mM 5-oxohexanoic acid ethyl ester, 0.2 mM NADH, pH 7.9
[7] = compound 1.0 mM, 35 mM 5-oxohexanoic acid ethyl ester, 0.2 mM NADH, pH 7.9

CCOC(=O)CC(C)=O [AEEE, acetoacetic acid ethyl ester]
NADH dependent specific activity (KERed from Y. cellobiosa): 103.1 mU/mg
NADPH-dependent specific activity (KERed from Y. cellobiosa): 5.0 mU/mg
Km [1]: 122 µM
Vmax [1]: 79%
NADH dependent specific activity [2]: 49.0 mU/mg
NADH dependent specific activity [3]: 153.0 mU/mg

CCCC(=O)CC(=O)OCC [BEEE, butyrylacetic acid ethy ester]
NADH dependent specific activity (KERed from Y. cellobiosa): 20.3 mU/mg
NADH dependent specific activity [4]: 49.0 mU/mg
NADPH-dependent specific activity [4]: 25.0 mU/mg
Km [1]: 1300 µM
Vmax [1]: 5%
NADH dependent specific activity [2]: 11.6 mU/mg
NADPH-dependent specific activity ([2]; 0.2 mM NADPH): 15.6 mU/mg
NADH dependent specific activity [3]: 3.0 mU/mg

CCO [Ethanol]
Residual Activity ([5]; Ethanol 5%): 30%
Km [1]: 3400 µM
Vmax [1]: 42%

CCOC(=O)CCC(C)=O [LSEE, levulinic acid ethyl ester]
NADH dependent specific activity (KERed from Y. cellobiosa): 41.1 mU/mg
NADPH-dependent specific activity (KERed from Y. cellobiosa): 4.0 mU/mg
NADH dependent specific activity [4]: 85.1 mU/mg
NADPH-dependent specific activity [4]: 1.3 mU/mg
Km [1]: 1730 µM
Vmax [1]: 12%
NADH dependent specific activity [2]: 4.1 mU/mg
NADH dependent specific activity [3]: 87.1 mU/mg

CC(=O)C=O [Methylglyoxal]
Residual Activity [5, 6]: 100%
Residual Activity [5, 7]: 34%

[Mg+2] [Mg^2+]
Residual Activity [5, 6]: 91%
Residual Activity [5, 7]: 82%

[Mn+2] [Mn^2+]
Residual Activity [5, 6]: 84%
Residual Activity [5, 7]: 80%

CCN1C(=O)C=CC1=O [N-ethylmaleimide]
Residual Activity [5, 6]: 70%
Residual Activity [5, 7]: 47%

[Ni+2] [Ni^2+]
Residual Activity [5, 6]: 10%
Residual Activity [5, 7]: 0%
Influence on KERed activity (in words) [5]: Rapid deactivation

[Pb+2] [Pb^2+]
Residual Activity [5, 6]: 0%
Residual Activity [5, 7]: 0%
Influence on KERed activity (in words) [5]: Rapid deactivation

Cl.NCCc1ccc(S(=O)(=O)F)cc1 [Pefabloc]
Residual Activity [5, 7]: 100%

[Sn+2] [Sn^2+]
Residual Activity [5, 6]: 73%
Residual Activity [5, 7]: 0%
Influence on KERed activity (in words) [5]: Rapid deactivation

[Zn+2] [Zn^2+]
Residual Activity [5, 6]: 24%
Residual Activity [5, 7]: 0%

c1cnc2c(c1)ccc1cccnc12 [o-Phenanthroline]
Residual Activity [5, 6]: 26%
Influence on KERed activity (in words) [5]: relatively strongly inhibited; also recorded: Strong inhibition

O=C(O)c1cc[c]([Hg+])cc1.[OH-] [p-Hydroxymercuribenzoate]
Residual Activity [5, 6]: 0%
Residual Activity [5, 7]: 0%
Influence on KERed activity (in words) [5]: Strong inhibition

Triton X-100
Residual Activity ([5]; Triton X-100 0.1%): 100%

From patent US5523223A, “Ketoester reductase for conversion of keto acid esters to optically active hydroxy acid esters” (priority 1992, dated 1996)
